Assay results: US11285133B2, “2- or 3-imidazolines as carbapenemases inhibitors” (priority 2017, dated 2022)
Marks after values point to notes of the source that are not given here.

How the values were obtained:
Format in all cases: biochemical
OXA-48 Enzyme = OXA-48 Enzyme (Klebsiella pneumoniae, UniProt Q6XEC0); experiment: Imipenem hydrolysis monitored by UV absorbance slope, OXA-48 enzyme; settings: for inhibition at 10 µM: read-out: OXA-48 Enzyme Inhibition at 10 μM; for OXA-48 Enzyme Inhibition at 10 μM: 10 μM compound
Sequence of OXA-48 Enzyme (Q6XEC0 23-265 limits assumed): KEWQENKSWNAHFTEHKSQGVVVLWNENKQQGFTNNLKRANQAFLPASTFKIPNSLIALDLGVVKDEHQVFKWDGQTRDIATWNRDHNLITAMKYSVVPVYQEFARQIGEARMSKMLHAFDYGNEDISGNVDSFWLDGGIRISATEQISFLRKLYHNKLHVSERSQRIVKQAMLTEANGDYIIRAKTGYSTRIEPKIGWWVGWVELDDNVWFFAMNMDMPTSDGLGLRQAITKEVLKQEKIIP
Experimental: (§1) These tests are conducted by comparing UV absorbance slope measurements of impenem alone, and then imipenem with the concerned 3-imidazolines at given concentrations in the presence of the enzyme. It was thus possible to monitor the hydrolysis of imipenem. Lower the value of the slope, the higher is the percentage of inhibition of the enzyme.

NDM-1 Enzyme = NDM-1 Enzyme (Klebsiella pneumoniae, UniProt C7C422); experiment: Imipenem hydrolysis monitored by UV absorbance slope, NDM-1 enzyme; settings: 10 μM compound, starred cells in the IC50 column
Sequence of NDM-1 Enzyme (C7C422 29-270, looked up, species assumed): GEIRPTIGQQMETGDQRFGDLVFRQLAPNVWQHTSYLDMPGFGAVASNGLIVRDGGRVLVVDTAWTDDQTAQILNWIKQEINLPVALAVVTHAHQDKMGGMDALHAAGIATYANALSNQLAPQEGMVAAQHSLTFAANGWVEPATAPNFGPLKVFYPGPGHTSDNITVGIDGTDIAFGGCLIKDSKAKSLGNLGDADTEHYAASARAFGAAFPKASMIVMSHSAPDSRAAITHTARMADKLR
Experimental: as §1

KPC Enzyme = KPC Enzyme (Klebsiella pneumoniae, UniProt Q9F663); experiment: Imipenem hydrolysis monitored by UV absorbance slope, KPC enzyme; settings: for KPC Enzyme percentage of inhibition at 10 μM: 10 μM compound, starred cells in the IC50 column, ND = Not Detectable (at 10 μM); for inhibition at 10 µM: read-out: KPC Enzyme percentage of inhibition at 10 μM
Sequence of KPC Enzyme (Q9F663 25-293, looked up): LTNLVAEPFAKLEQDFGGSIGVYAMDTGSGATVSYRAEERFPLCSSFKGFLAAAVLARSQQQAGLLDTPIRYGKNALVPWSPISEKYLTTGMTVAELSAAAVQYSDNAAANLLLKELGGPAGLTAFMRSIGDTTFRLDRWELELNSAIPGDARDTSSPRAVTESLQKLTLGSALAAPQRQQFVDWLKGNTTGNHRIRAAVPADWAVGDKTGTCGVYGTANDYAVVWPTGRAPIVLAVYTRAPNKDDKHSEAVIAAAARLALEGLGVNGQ
Experimental: as §1

| inhibition at 10 µM (OXA-48 Enzyme) [%] | OXA-48 Enzyme Inhibition at 10 μM (OXA-48 Enzyme) | SMILES | other results |
| --- | --- | --- | --- |
| 9 |  | COc1ccc(C2N=C(c3ccccc3)C(C)N2c2ccccc2)cc1 (centres unmarked) [Compound 1] |  |
| 9 |  | COc1ccc(C2N=C(c3ccccc3)C(C)N2c2ccc(I)cc2)cc1 (centres unmarked) [Compound 2] |  |
| 11 |  | COc1ccc(C2N=C(c3ccccc3)C(C)N2c2ccc(OC)cc2)cc1 (centres unmarked) [Compound 3] |  |
|  | Not Detectable | COc1ccc(C2N=C(c3ccccc3)C(C)N2c2ccc(Cl)cc2)cc1 (centres unmarked) [Compound 4] |  |
| 19 |  | COc1ccc(C2N=C(c3ccccc3)C(C)N2c2ccc(C(F)(F)F)cc2)cc1 (centres unmarked) [Compound 5] |  |
|  | Not Detectable | COc1ccc(C2N=C(c3ccccc3)C(C)N2c2ccc(Br)cc2)cc1 (centres unmarked) [Compound 6] | inhibition at 10 µM (NDM-1 Enzyme; read-out: NDM-1 Enzyme percentage of inhibition at 10 μM): 20% |
|  | Not Detectable | COc1ccc(C2=NC(c3ccc(OC)cc3)N(c3ccc(OC)cc3)C2C)cc1 (centres unmarked) [Compound 7] | KPC Enzyme percentage of inhibition at 10 μM (KPC Enzyme): 18%* |
|  | Not Detectable | COc1ccc(C2=NC(c3ccccc3)N(c3ccccc3)C2C)cc1 (centres unmarked) [Compound 8] | KPC Enzyme percentage of inhibition at 10 μM (KPC Enzyme): 23%* |
|  | Not Detectable | COc1ccc(C2=NC(c3ccc(OC)cc3)N(c3ccccc3)C2C)cc1 (centres unmarked) [Compound 9] | inhibition at 10 µM (KPC Enzyme): 40% |
|  | Not Detectable | COc1ccc(C2=NC(c3ccccc3)N(c3ccc(OC)cc3)C2C)cc1 (centres unmarked) [Compound 11] | NDM-1 Enzyme percentage of inhibition at 10 μM (NDM-1 Enzyme): 20%* |
|  | Not Detectable | COc1ccc(N2C(C)C(c3ccc(Cl)cc3)=NC2c2ccc(Cl)cc2)cc1 (centres unmarked) [Compound 12] | inhibition at 10 µM (KPC Enzyme): 50% |
|  | Not Detectable | CC1C(c2ccccc2)=NC(c2ccccc2)N1c1ccccc1 (centres unmarked) [Compound 13] | KPC Enzyme percentage of inhibition at 10 μM (KPC Enzyme): 23%* |
|  | Not Detectable | CC1C(c2ccccc2)=NC(c2ccccc2)N1c1ccc(I)cc1 (centres unmarked) [Compound 14] |  |
|  | Not Detectable | CC1C(c2ccccc2)=NC(c2ccccc2)N1c1ccc(Br)cc1 (centres unmarked) [Compound 15] |  |
|  | Not Detectable | CC1C(c2ccccc2)=NC(c2ccccc2)N1c1ccc(Cl)cc1 (centres unmarked) [Compound 16] | KPC Enzyme percentage of inhibition at 10 μM (KPC Enzyme): 18%* |
|  | Not Detectable | COc1ccc(N2C(C)C(c3ccccc3)=NC2c2ccccc2)cc1 (centres unmarked) [Compound 17] | KPC Enzyme percentage of inhibition at 10 μM (KPC Enzyme): 17%* |
|  | Not Detectable | CC1C(c2ccc(Cl)cc2)=NC(c2ccc(Cl)cc2)N1c1ccccc1 (centres unmarked) [Compound 18] | KPC Enzyme percentage of inhibition at 10 μM (KPC Enzyme): 14%* |
|  | 50% | CC1C(c2ccc(Cl)cc2)=NC(c2ccc(Cl)cc2)N1c1ccc(Cl)cc1 (centres unmarked) [Compound 19] |  |
| 38 |  | C/C(=N\c1ccccc1)C1(c2ccc(Cl)cc2)N=C(c2ccc(Cl)cc2)N(c2ccccc2)C1C (centres unmarked) [Compound 24] |  |
|  | Not Detectable | C/C(=N\c1ccccc1)C1(c2ccccc2)N=C(c2ccccc2)N(c2ccccc2)C1C (centres unmarked) [Compound 25] | inhibition at 10 µM (KPC Enzyme): 30% |
| 22 |  | C/C(=N\c1ccc(Cl)cc1)C1(c2ccccc2)N=C(c2ccccc2)N(c2ccc(Cl)cc2)C1C (centres unmarked) [Compound 26] |  |
| 38 |  | C/C(=N\c1ccc(Br)cc1)C1(c2ccccc2)N=C(c2ccccc2)N(c2ccc(Br)cc2)C1C (centres unmarked) [Compound 27] |  |
| 31 |  | C/C(=N\c1ccc(Cl)cc1)C1(c2ccc(Cl)cc2)N=C(c2ccc(Cl)cc2)N(c2ccc(Cl)cc2)C1C (centres unmarked) [Compound 28] |  |
| 36 |  | C/C(=N\c1ccc(Br)cc1)C1(c2ccc(Cl)cc2)N=C(c2ccc(Cl)cc2)N(c2ccc(Br)cc2)C1C (centres unmarked) [Compound 29] |  |
